Results reported in ChEMBL document CHEMBL1149838, “Usimines A-C, bioactive usnic acid derivatives from the Antarctic lichen Stereocaulon alpinum” (J Nat Prod, 2008).

Molecular target: T1, Tyrosine-protein phosphatase non-receptor type 1 (Homo sapiens, UniProt P18031)
T1 sequence (P18031 whole entry): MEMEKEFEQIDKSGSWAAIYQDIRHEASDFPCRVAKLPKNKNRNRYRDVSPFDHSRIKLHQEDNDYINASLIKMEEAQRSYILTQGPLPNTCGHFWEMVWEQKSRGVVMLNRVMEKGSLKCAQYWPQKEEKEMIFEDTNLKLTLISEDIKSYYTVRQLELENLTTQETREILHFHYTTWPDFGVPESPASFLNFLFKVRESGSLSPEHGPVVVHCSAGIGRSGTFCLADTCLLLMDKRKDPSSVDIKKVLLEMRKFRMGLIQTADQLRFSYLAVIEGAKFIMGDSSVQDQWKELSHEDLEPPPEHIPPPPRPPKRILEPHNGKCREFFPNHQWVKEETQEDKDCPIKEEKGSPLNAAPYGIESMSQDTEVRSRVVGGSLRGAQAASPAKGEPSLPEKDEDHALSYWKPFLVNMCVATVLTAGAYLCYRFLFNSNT
Assay: Inhibition of human recombinant PTP1B

SMILES	IC50
COC(=O)CC[C@H](/N=C(\C)C1=C(O)C=C2Oc3c(C(C)=O)c(O)c(C)c(O)c3[C@@]2(C)C1=O)C(=O)O [USIMINE A]	15 µM
CC(=O)c1c(O)c(C)c(O)c2c1OC1=CC(O)=C(/C(C)=N\[C@@H](CCC(=O)O)C(=O)O)C(=O)[C@@]12C [USIMINE C]	23.2 µM
CC(=O)C1=C(O)C=C2Oc3c(C(C)=O)c(O)c(C)c(O)c3[C@@]2(C)C1=O [(+)-USNIC ACID]	16.4 µM
CC(=O)c1c(O)c(C)c(O)c2c1OC1=CC(O)=C(/C(C)=N/[C@@H](CCC(=O)O)C(=O)O)C(=O)[C@@]12C [USIMINE B]	27.7 µM
